Patent US8536202B2, “Triazole-substituted anthranilamides as pesticides” (Bayer Cropscience AG, priority 2010, dated 2013)
Where two headings read alike, the source gives them in different places. One block for each compound: values may come before it.

Key:
[1] = system: larvae of the mustard beetle (Phaedon cochleariae); experiment: Phaedon test (PHAECO spray treatment); format: in vivo; conditions: 168 h, read-out: activity in %
Procedure: (§1) Solvents: 78.0 parts by weight of acetone • • 1.5 parts by weight of dimethylformamide
(§2) Emulsifier: 0.5 part by weight of alkylaryl polyglycol ether
(§3) An appropriate preparation of active compound is prepared by mixing 1 part by weight of active compound with the stated amounts of solvent and emulsifier and diluting the concentrate with emulsifier-containing water to the desired concentration.
After 7 days, the activity in % is ascertained. Here, 100% means that all of the beetle larvae have been killed; 0% means that no beetle larvae have been killed.

[2] = system: caterpillars of the armyworm (Spodoptera frugiperda); experiment: Spodoptera frugiperda test (SPODFR spray treatment); format: in vivo; conditions: 168 h; for pest or weed control at 100 g/ha: read-out: activity in %
Procedure: as §1, §2, §3
Leaf discs of maize (Zea mays) are sprayed with a preparation of active compound at the desired concentration and, after drying, are populated with caterpillars of the armyworm (Spodoptera frugiperda).
After 7 days, the activity in % is ascertained. Here, 100% means that all of the caterpillars have been killed; 0% means that no caterpillar has been killed.

[3] = log P determination by HPLC on reversed-phase columns (EEC Directive 79/831 Annex V.A8); format: physicochemical; conditions: pH 2.7
Procedure: Determination by LC-MS in the acidic range takes place at a pH of 2.7 using 0.1% aqueous formic acid and acetonitrile (containing 0.1% formic acid) as eluents, with a linear gradient from 10% acetonitrile to 95% acetonitrile.
Calibration was carried out using unbranched alkan-2-ones (having 3 to 16 carbon atoms) with known log P values (the log P values are determined from the retention times by linear interpolation between two successive alkanones).

[4] = reversed-phase C18 HPLC column, HPLC on reversed-phase columns (C 18), EEC Directive 79/831 Annex V.A8, read-out: logP

SMILES: Cc1cc(I)cc(C(=O)NC(C)(C)C)c1NC(=O)c1cc(Cn2ncc(C(F)(F)C(F)(F)C(F)(F)F)n2)nn1-c1ncccc1Cl [Example 385]
- pest or weed control at 100 g/ha [1]: 100%
- pest or weed control at 100 g/ha [2]: 100%
- chromatographic logP ([3]; HPLC on reversed-phase columns (C 18), EEC Directive 79/831 Annex V.A8, read-out: logP): 4.89

SMILES: Cc1cc(I)cc(C(N)=O)c1NC(=O)c1cc(Cn2ncc(C(F)(F)C(F)(F)F)n2)nn1-c1ncccc1Cl [Example 354]
- pest or weed control at 100 g/ha ([1]; 100 g/ha, after 7 days): 100%
- pest or weed control at 100 g/ha ([2]; 100 g/ha, after 7 days): 100%
- chromatographic logP [3]: 3.33

SMILES: Cc1cc(I)cc(C(=O)NC(C)C)c1NC(=O)c1cc(Cn2ncc(C(F)(C(F)(F)F)C(F)(F)F)n2)nn1-c1ncccc1Cl [Example 267]
- pest or weed control at 100 g/ha ([1]; 100 g/ha, after 7 days): 100%
- pest or weed control at 100 g/ha ([2]; 100 g/ha, after 7 days): 100%
- chromatographic logP [3]: 4.51

SMILES: Cc1cc(F)cc(C(=O)NC2CC2)c1NC(=O)c1cc(Cn2ncc(C(F)(F)F)n2)nn1-c1ncccc1Cl [Example 169]
- pest or weed control at 100 g/ha ([1]; 100 g/ha, after 7 days): 100%
- pest or weed control at 100 g/ha ([2]; 100 g/ha, after 7 days): 100%
- chromatographic logP [3]: 2.86

SMILES: Cc1cc(C#N)cc(C(=O)NC(C)(C)C)c1NC(=O)c1cc(Cn2nc3ccc(C(F)(F)F)cc3n2)nn1-c1ncccc1Cl [Example 114]
- pest or weed control at 100 g/ha ([1]; 100 g/ha, after 7 days): 100%
- pest or weed control at 100 g/ha ([2]; 100 g/ha, after 7 days): 100%
- chromatographic logP [3]: 3.94

SMILES: CNC(=O)c1cc(C#N)cc(C)c1NC(=O)c1cc(Cn2nnc3cc(Br)c(C(F)(F)F)cc32)nn1-c1ncccc1Cl [Example 97]
- pest or weed control at 100 g/ha ([1]; 100 g/ha, after 7 days): 100%
- pest or weed control at 100 g/ha ([2]; 100 g/ha, after 7 days): 100%
- chromatographic logP [3]: 3.27

- chromatographic logP [3, 4]: 4.34
SMILES: Cc1cc(Cl)cc(C(=O)NCC2CC2)c1NC(=O)c1cc(Cn2ncc(C(F)(C(F)(F)F)C(F)(F)F)n2)nn1-c1ncccc1Cl [Example 261]
- pest or weed control at 100 g/ha ([1]; 100 g/ha, after 7 days): 100%
- pest or weed control at 100 g/ha ([2]; 100 g/ha, after 7 days): 100%

SMILES: Cc1cc(I)cc(C(=O)NC2CC2)c1NC(=O)c1cc(Cn2cc(C(F)(F)F)nn2)nn1-c1ncccc1Cl [Example 208]
- pest or weed control at 100 g/ha ([1]; 100 g/ha, after 7 days): 100%
- pest or weed control at 100 g/ha ([2]; 100 g/ha, after 7 days): 100%
- chromatographic logP [3]: 3.15

SMILES: Cc1cc(I)cc(C(=O)NC(C)C)c1NC(=O)c1cc(Cn2cc(C(F)(F)F)nn2)nn1-c1ncccc1Cl [Example 210]
- pest or weed control at 100 g/ha ([1]; 100 g/ha, after 7 days): 100%
- pest or weed control at 100 g/ha ([2]; 100 g/ha, after 7 days): 100%
- chromatographic logP [3]: 3.38

- chromatographic logP [3, 4]: 4.73
SMILES: CSC[C@H](C)NC(=O)c1cc(I)cc(C)c1NC(=O)c1cc(Cn2ncc(C(F)(C(F)(F)F)C(F)(F)F)n2)nn1-c1ncccc1Cl [Example 270]
- pest or weed control at 100 g/ha ([1]; 100 g/ha, after 7 days): 100%
- pest or weed control at 20 g/ha ([2]; 20 g/ha, after 7 days): 100%

SMILES: CNC(=O)c1cc(C#N)cc(C)c1NC(=O)c1cc(Cn2cc(-c3ccc(C(F)(F)F)cc3)nn2)nn1-c1ncccc1Cl [Example 3]
- pest or weed control at 100 g/ha ([1]; 100 g/ha, after 7 days): 100%
- pest or weed control at 100 g/ha ([2]; 100 g/ha, after 7 days): 100%
- chromatographic logP [3]: 2.99

SMILES: CCNC(=O)c1cc(C#N)cc(C)c1NC(=O)c1cc(Cn2nc(C(F)(F)F)c(C(F)(F)F)n2)nn1-c1ncccc1Cl [Example 397]
- pest or weed control at 100 g/ha ([1]; 100 g/ha, after 7 days): 100%
- pest or weed control at 100 g/ha ([2]; 100 g/ha, after 7 days): 100%
- chromatographic logP [3]: 3.61

SMILES: CNC(=O)c1cc(Cl)cc(C)c1NC(=O)c1cc(Cn2cc(-c3ccc(F)cc3)nn2)nn1-c1ncccc1Cl [Example 16]
- pest or weed control at 100 g/ha ([1]; 100 g/ha, after 7 days): 100%
- pest or weed control at 100 g/ha ([2]; 100 g/ha, after 7 days): 83%
- chromatographic logP [3]: 2.84

SMILES: CNC(=O)c1cc(Cl)cc(C)c1NC(=O)c1cc(Cn2nc3ccc(F)cc3n2)nn1-c1ncccc1Cl [Example 79]
- pest or weed control at 100 g/ha ([1]; 100 g/ha, after 7 days): 100%
- pest or weed control at 100 g/ha ([2]; 100 g/ha, after 7 days): 100%
- chromatographic logP [3]: 2.89

- chromatographic logP [3, 4]: 4.38
SMILES: Cc1cc(I)cc(C(=O)NC(C)C2CC2)c1NC(=O)c1cc(Cn2cc(C(F)(C(F)(F)F)C(F)(F)F)nn2)nn1-c1ncccc1Cl (stereo not drawn) [Example 234]
- pest or weed control at 100 g/ha ([1]; 100 g/ha, after 7 days): 100%
- pest or weed control at 100 g/ha ([2]; 100 g/ha, after 7 days): 100%

SMILES: CNC(=O)c1cc(C#N)cc(C)c1NC(=O)c1cc(Cn2ncc(-c3ccc(Cl)cc3Cl)n2)nn1-c1ncccc1Cl [Example 42]
- pest or weed control at 100 g/ha ([1]; 100 g/ha, after 7 days): 100%
- pest or weed control at 100 g/ha ([2]; 100 g/ha, after 7 days): 100%
- chromatographic logP [3]: 3.81

- chromatographic logP [3, 4]: 4.11
SMILES: Cc1cc(C#N)cc(C(=O)NC(C)C2CC2)c1NC(=O)c1cc(Cn2nc(C(F)(F)F)c(C(F)(F)F)n2)nn1-c1ncccc1Cl (stereo not drawn) [Example 413]
- pest or weed control at 100 g/ha ([1]; 100 g/ha, after 7 days): 100%
- pest or weed control at 100 g/ha ([2]; 100 g/ha, after 7 days): 100%
